# Source: US5994336A, “Method of inhibiting proliferation of cells by administering an aminosterol compound” (priority 1995, dated 1999)
# Entries after “also recorded” stand apart in the source; their conditions may differ.
# Assays:
# [1] = test system: S. aureus; test: Antibiotic activity, MIC; assay type: cell-based; details: Staphylococcus aureus
# Description: (§1) Thus, it is possible to achieve an antimicrobial steroid with or without squalamine-like pharmacological activity.
# [2] = test system: P. aerug; test: Antibiotic activity, MIC; assay type: cell-based
# Description: as §1
# [3] = test system: E. coli; test: Antibiotic activity, MIC; assay type: cell-based; details: Escherichia coli
# Description: as §1
# [4] = test system: C. albicans; test: Antibiotic activity, MIC; assay type: cell-based; details: Candida albicans
# Description: as §1
# [5] = MTT assay (Table II); assay type: cell-based; details: read-out: Minimum Effective Concentration, MTT assay
# Description: (§2) As set forth in Table II, which follows Table I, the activities of natural and synthetic aminosterols in the different assays vary. In light of the foregoing, it is now possible to screen for steroids with or without squalamine-like pharmacological activity.
# [6] = test system: Lic; test: MTT Lic (Table II); assay type: cell-based; details: read-out: Minimum Effective Concentration, MTT Lic
# Description: as §2
# [7] = test system: human microvascular cells; test: Inhibition of endothelial cell cord formation in vitro; assay type: cell-based; details: Homo sapiens, Endothelial cell; Table II; read-out: Minimum Effective Concentration, Cord Formation
# Description: Endothelial cells have the capacity in vitro to form tubular aggregates resembling capillaries in various early stages of formation. This conversion occurs under relatively specific conditions, in which essential growth factors along with an effective substratum are provided. It has been shown that both the interaction of growth factors with the endothelial cell and its attachment to a substratum activate the NHE. The activation of this exchanger is believed to be required for subsequent morphologic transformation of the endothelial cell into a multicellular tubular structure.
# To assess the effect of compounds on the cord-like structures formed by human microvascular cells when plated in the presence of VEGF (Vascular Endothelial Growth Factor) and basic fibroblast growth factor on a collagen matrix, a standard cord formation assay was used.
# [8] = test system: Xenopus tadpole, stage 59-60; test: Tadpole assay; assay type: in vivo, Xenopus laevis; details: 10 μg/ml; for pharmacological response in tadpole (words): stage 59-60
# Description: For example, substances that destroy all of the animal's epithelium, both adult and embryonic, could be regarded as toxic.
# The volume of liquid is sufficient for the animal to swim freely and drink from the solution. […] If the volume of liquid is not sufficient to permit oral intake, the effects that are observed would result from absorption through the surface epithelium.
# In another embodiment of this assay, a solution of a compound in water can be injected directly into the abdomen of the animal using standard techniques.
# After an amount of time, typically about 60 minutes, the occlusion of blood flow through capillaries in the tadpole's tail are observed under an inverted microscope at a magnification of roughly 100×.
# In the assay, each of the steroids was dissolved in 100 ml of distilled water at a concentration of 10 μg/ml. Stage 59-60 Xenopus tadpoles were introduced and evaluated by light microscopy and gross observation 1 hour later.
# [9] = test system: vitelline capillaries; test: Chick embryo vitelline capillary regression assay; assay type: in vivo
# Protocol: Using the chick embryo vitelline capillaries assay, compounds were tested for their ability to induce capillary regression. Each compound was applied in 0.1 ml of 15% Ficol 400 and PBS onto the embryo, and vascular regression was assessed after 60 minutes.
# The 3-day chick embryo consists of an embryonic disc from which numerous vessels emerge and return, forming a "FIG. 8"-shaped structure--the embryo in the center with vascular loops extending outward over both poles. […] Following a lag period of around 15 minutes, the constriction of continuity between capillary and secondary vessels, generally on the "venous" side, was observed. Continued pulsatile blood flow progressed, resulting in a "swelling" of the blind tube, followed by a pinching off of the remaining connection and formation of an enclosed vascular sac resembling a "blood island." This process progressed until only the largest vessels remained intact.
# [10] = Effect on fasting blood glucose in mice; assay type: in vivo, mouse; details: i.v.
# Protocol: To study the effect of steroid administrator or the NHE responsible for secretion of insulin, several of the aminosterols from shark liver were administered to fasting mice. Male CD-1 mice were assigned to one of four treatment groups. Whole blood glucose was tested using glucometer (Lifescan Glucometer II and One Touch test strips). Statistical analysis was via one-way analysis of variance (ANOVA) followed by subsequent Bonferonni's t-test.
# [11] = test system: Human ovarian carcinoma SKOV3; test: Growth inhibition in vitro (Table 7); assay type: cell-based
# Protocol: As set forth in Table 7 below, all malignant tumors evaluated in tissue culture, endothelial cells and vascular smooth muscle cells were sensitive to inhibition. Thus, compound 1436 has application in the control of growth factor dependent proliferation of many types of tissue.
# Using the assay described above, the anticancer effects of compound 1437 against several cancer lines was assessed.
# [12] = test system: NHE1β; details: nucleated erythrocyte isoform; cited from earlier work
# [13] = biological target: T1, rabbit NHE3 (Oryctolagus cuniculus, UniProt P26432); details: existing agents such as amiloride; cited from earlier work
# T1 construct: BCECF internal pH recovery
# T1 sequence (P26432 30-832): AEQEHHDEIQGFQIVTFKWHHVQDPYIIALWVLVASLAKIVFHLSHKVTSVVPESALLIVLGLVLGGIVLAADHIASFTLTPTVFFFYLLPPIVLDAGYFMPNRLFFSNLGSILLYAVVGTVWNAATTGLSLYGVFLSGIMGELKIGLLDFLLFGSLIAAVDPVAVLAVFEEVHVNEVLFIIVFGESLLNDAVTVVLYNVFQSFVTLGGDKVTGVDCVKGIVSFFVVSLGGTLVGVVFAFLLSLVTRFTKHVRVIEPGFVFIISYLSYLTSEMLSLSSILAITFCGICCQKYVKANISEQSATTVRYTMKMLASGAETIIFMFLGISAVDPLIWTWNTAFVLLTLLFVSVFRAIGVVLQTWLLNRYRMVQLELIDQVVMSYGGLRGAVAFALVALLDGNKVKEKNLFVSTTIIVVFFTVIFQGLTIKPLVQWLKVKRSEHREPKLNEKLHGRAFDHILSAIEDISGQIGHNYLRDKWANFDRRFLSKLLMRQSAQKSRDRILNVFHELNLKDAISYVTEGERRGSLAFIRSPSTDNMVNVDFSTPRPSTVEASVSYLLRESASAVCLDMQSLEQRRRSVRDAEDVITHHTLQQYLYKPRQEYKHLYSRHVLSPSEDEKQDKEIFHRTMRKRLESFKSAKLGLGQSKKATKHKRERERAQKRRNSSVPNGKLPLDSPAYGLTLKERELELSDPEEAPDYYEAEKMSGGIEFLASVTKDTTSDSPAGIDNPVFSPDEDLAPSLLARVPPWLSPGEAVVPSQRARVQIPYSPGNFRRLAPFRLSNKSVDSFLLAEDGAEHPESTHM
structure (smiles),measurement,setting,value
CC(O)[C@H]1CC[C@H]2[C@@H]3CC[C@H]4C[C@@H](NCCCNCCCCN)CC[C@]4(C)[C@H]3CC[C@]12C (stereo partly shown),MIC,[1],4 µg/mL
same,MIC,[2],256 µg/mL
same,MIC,[3],32 to 64 µg/mL
same,MIC,[4],64 µg/mL
CC(O)[C@H]1CC[C@H]2[C@@H]3CC[C@H]4C[C@H](NCCCNCCCCN)CC[C@]4(C)[C@H]3CC[C@]12C (stereo partly shown),MIC,[1],16 µg/mL
same,MIC,[2],128 µg/mL
same,MIC,[3],64 µg/mL
same,MIC,[4],128 µg/mL
COC(=O)CCC(C)[C@H]1CCC2C3C(CC[C@@]21C)[C@@]1(C)CC[C@@H](NCCN)C[C@H]1C[C@H]3O (stereo partly shown),minimal effective concentration,[5],2.5 µg/mL
CC(CC[C@@H](OS(=O)(=O)O)C(C)C)[C@H]1CCC2C3C(CC[C@@]21C)[C@@]1(C)CC[C@H](NCCCNCCCCN)C[C@@H]1C[C@H]3O (stereo partly shown),minimal effective concentration,[6],13.2 µg/mL
same,minimal effective concentration,[7],0.01 to 0.1 µg/mL
CC(CC[C@@H](OS(=O)(=O)O)C(C)C)[C@H]1CCC2C3C(CC[C@@]21C)[C@@]1(C)CC[C@H](NCCCNCCCCNCCCN)C[C@@H]1C[C@H]3O (stereo partly shown),minimal effective concentration,[6],16.7 µg/mL
"CC(COS(=O)(=O)O)C(=O)CC[C@@H](C)[C@H]1CC[C@H]2[C@@H]3[C@H](O)C[C@H]4C[C@@H](NCCCNCCCCN)CC[C@]4(C)[C@H]3CC[C@]12C (single isomer, unassigned) [Compound 1360]",pharmacological response in tadpole (words),[8],"Swelling and lysis of certain erythrocytes occurred, resulting in accumulation of nuclei within certain small vessels of the tail. Subsequent tissue breakdown occurred in areas of tail surrounding these nuclear plugs"
same,pharmacological response in tadpole (words),[8]; listed as compound 1360,extensive vasocclusion occurred within 60 minutes throughout the tail
same,effect on circulating embryonic blood,[9]; within 20 minutes,the blood circulating through the embryonic vessels exhibited a brighter red color
"CC(C)C(CO)(CC[C@@H](C)[C@H]1CC[C@H]2[C@@H]3[C@H](O)C[C@H]4C[C@@H](NCCCNCCCCN)CC[C@]4(C)[C@H]3CC[C@]12C)OS(=O)(=O)O (single isomer, unassigned) [Compound 1437]",blood glucose effect,[10],caused hyperglycemia in mice
same,tissues or functions not affected in tadpole,[8],"Animal was otherwise active, with little tissue breakdown noted"
same,pharmacological response in tadpole (words),[8],"Epithelium covering the embryonic portions of the animal, such as the tail and antennae, began to slough off in sheets; also recorded: dramatic effect on the embryonic epithelium covering the tadpole tale"
same,anticancer activity,[11],exhibit anticancer activity
N=C(N)NC(=O)c1nc(Cl)c(N)nc1N [Amiloride],inhibition of NHE1β,[12],inhibited by high concentrations
same,effect on Vmax of NHE3 (existing agents),[13],affected only Vmax
CC(C)CCC[C@@H](C)[C@H]1CC[C@H]2[C@@H]3[C@H](O)C[C@H]4C[C@H](NCCCNCCCCN)CC[C@]4(C)[C@H]3CC[C@]12C [Compound 370],pharmacological response in tadpole (words),[8],pharmacologic activity similar to that seen for FX 3
CC(C)CCC[C@@H](C)[C@H]1CC[C@H]2[C@@H]3[C@H](O)C[C@H]4C[C@@H](NCCCNCCCCN)CC[C@]4(C)[C@H]3CC[C@]12C [Compound 371],pharmacological response in tadpole (words),[8],effects like those produced by compound 1436
COC(=O)CC[C@@H](C)[C@H]1CC[C@H]2[C@@H]3[C@H](O)C[C@@H]4C[C@@H](NCCN)CC[C@]4(C)[C@H]3CC[C@]12C [Compound 409],pharmacological response in tadpole (words),[8],functionally similar to compound 1437
COC(=O)CC[C@@H](C)[C@H]1CC[C@H]2[C@@H]3[C@H](O)C[C@@H]4C[C@H](NCCN)CC[C@]4(C)[C@H]3CC[C@]12C [Compound 410],pharmacological response in tadpole (words),[8],functionally similar to compound 1437
C[C@H](CCC(=O)O)[C@H]1CC[C@H]2[C@@H]3[C@H](O)C[C@@H]4C[C@H](NCCCNCCCCNCCCN)CC[C@]4(C)[C@H]3CC[C@]12C [Compound 412],pharmacological response in tadpole (words),[8],pharmacologic activity similar to that seen for FX 3
C[C@H](CCC(=O)O)[C@H]1CC[C@H]2[C@@H]3[C@H](O)C[C@@H]4C[C@@H](NCCCNCCCCNCCCN)CC[C@]4(C)[C@H]3CC[C@]12C [Compound 413],pharmacological response in tadpole (words),[8],effects like those produced by compound 1436
C[C@H](CCC(=O)O)[C@H]1CC[C@H]2[C@@H]3[C@H](O)C[C@@H]4C[C@H](NCCN)CC[C@]4(C)[C@H]3CC[C@]12C [Compound 414],pharmacological response in tadpole (words),[8],pharmacologic activity similar to Fraction 1
C[C@H](CCC(=O)O)[C@H]1CC[C@H]2[C@@H]3[C@H](O)C[C@@H]4C[C@@H](NCCN)CC[C@]4(C)[C@H]3CC[C@]12C [Compound 415],activity on vitelline capillaries,[9],especially active
COC(=O)CC[C@@H](C)[C@H]1CC[C@H]2[C@@H]3CC[C@@H]4C[C@H](NCCN)CC[C@]4(C)[C@H]3C[C@H](O)[C@]12C [Compound 416],pharmacological response in tadpole (words),[8],functionally similar to compound 1437
COC(=O)CC[C@@H](C)[C@H]1CC[C@H]2[C@@H]3C[C@@H](O)[C@H]4C[C@H](NCCN)CC[C@]4(C)[C@H]3CC[C@]12C [Compound 431],pharmacological response in tadpole (words),[8],functionally similar to compound 1437
COC(=O)CC[C@@H](C)[C@H]1CC[C@H]2[C@@H]3C[C@@H](O)[C@H]4C[C@@H](NCCN)CC[C@]4(C)[C@H]3CC[C@]12C [Compound 432],pharmacological response in tadpole (words),[8],functionally similar to compound 1437
C[C@H](CCC(=O)O)[C@H]1CC[C@H]2[C@@H]3C[C@@H](O)[C@H]4C[C@@H](NCCN)CC[C@]4(C)[C@H]3CC[C@]12C [Compound 433],pharmacological response in tadpole (words),[8],functionally similar to compound 1437
COC(=O)CC[C@@H](C)[C@H]1CC[C@H]2[C@@H]3CC[C@H]4C[C@H](NCCCNCCCCNCCCN)CC[C@]4(C)[C@H]3CC[C@]12C [Compound 458],pharmacological response in tadpole (words),[8],pharmacologic activity similar to that seen for FX 3
COC(=O)CC[C@@H](C)[C@H]1CC[C@H]2[C@@H]3CC[C@H]4C[C@@H](NCCCNCCCCNCCCN)CC[C@]4(C)[C@H]3CC[C@]12C [Compound 459],pharmacological response in tadpole (words),[8],pharmacologic activity similar to that seen for FX 3
COC(=O)CC[C@@H](C)[C@H]1CC[C@H]2[C@@H]3C[C@@H](O)[C@H]4C[C@H](NCCCNCCCCNCCCN)CC[C@]4(C)[C@H]3CC[C@]12C [Compound 465],pharmacological response in tadpole (words),[8],pharmacologic activity similar to that seen for FX 3
COC(=O)CC[C@@H](C)[C@H]1CC[C@H]2[C@@H]3C[C@@H](O)[C@H]4C[C@@H](NCCCNCCCCNCCCN)CC[C@]4(C)[C@H]3CC[C@]12C [Compound 466],pharmacological response in tadpole (words),[8],pharmacologic activity similar to that seen for FX 3
CC(C)CCC[C@@H](C)[C@H]1CC[C@H]2[C@@H]3[C@H](O)C[C@H]4C[C@H](N)CC[C@]4(C)[C@H]3CC[C@]12C [Compound 1363],pharmacological response in tadpole (words),[8],pharmacologic activity similar to Fraction 1
CC(C)CCC[C@@H](C)[C@H]1CC[C@H]2[C@@H]3CC[C@H]4C[C@@H](NCCCNCCCCNCCCN)CC[C@]4(C)[C@H]3CC[C@]12C [drawing 86],minimal effective concentration,[5],3 µg/mL
CC(C)CCC[C@@H](C)[C@H]1CC[C@H]2[C@@H]3[C@H](O)C[C@H]4C[C@H](NCCCNCCCCN)CC[C@]4(C)[C@H]3CC[C@]12C [drawing 94],minimal effective concentration,[5],4 µg/mL
